Values of other authors as cited in US12124166B2, “Negative resist formulation for producing undercut pattern profiles” (Merck Patent GmbH, priority 2017, dated 2024).

Details: for pKa (Quencher's pKa values): Table 9; for pKa in water: stated in the Materials descriptions of commercial quenchers

pKa (Quencher's pKa values)	pKa in water	SMILES
8.22	~8.22	CCc1ncc[nH]1 [2EI, 2-Ethylimidazole]
–	~10.08	CCCCCCCCCCCCCCCCCC1=NCCN1CCO [Addi-MC, 2-(2-heptadecyl-4,5-dihydro-1H-imidazol-1-yl)ethan-1-ol]
4.25	~4.25	CC(C)c1cccc(C(C)C)c1N [DIPA, 2,6-diisopropylaniline]
−3.04	~−3.04	c1ccc(N(c2ccccc2)c2ccccc2)cc1 [DPA, triphenylamine]
6.78	~6.78	OCCn1ccnc1 [IA, 1-(2-hydroxyethylimidazole)]
6.92	~6.92	COCCOCCN(CCOCCOC)CCOCCOC [MNNE, 2-(2-methoxyethoxy)-N,N-bis[2-(2-methoxyethoxy)ethyl]-Ethanamine]
9.91	–	CCCN(C)CCC [N-Methyldipropylamine]

SMILES	pKa (Quencher's pKa values)	pKa in water
CCN(C(C)C)C(C)C [N,N diisopropylethylamine]	10.98	–
